The target in one assay is T1, HIV-1-Protease (Human immunodeficiency virus type 1 group M subtype B, UniProt P04585).
T1 construct: Gereinigte HIV-Protease wurde mit synthetischem Peptid
The experiment in a line: HIV-specific protease enzyme test (cleavage of synthetic peptide by purified HIV protease, RP-HPLC analysis). The assay is classed as biochemical. The conditions noted are these: synthetic peptide substrate imitating Gag precursor cleavage site; for IC50: read-out: HIV-1-Protease-Inhibition IC50. The text has this: Es wurde überraschend gefunden, daß die Verbindungen der allgemeinen Formel (I) eine außerordentlich starke Wirkung gegen Retroviren besitzen. Dies wird mit einem HIV-spezifischen Protease-Enzymtest belegt.
Die Ergebnisse der unten aufgeführten Beispiele wurden nach dem in den folgenden Literaturangaben [vgl. Hansen, J., Billich, S., Schulze, T., Sukrow, S. and Mölling, K. (1988), EMBO Journal, Vol, 7, No. 6, pp. 1785 - 1791] beschriebenen HIV-Testsystem ermittelt: Gereinigte HIV-Protease wurde mit synthetischem Peptid, das eine Schnittstelle im Gag-Precursor-Protein imitiert und eine in vivo-Spaltstelle der HIV-Protease darstellt, inkubiert. Die entstandenen Spaltprodukte des synthetischen Peptids wurden über Reverse Phase High Performance Liquid Chromatography (RP-HPLC) analysiert. Die angegebenen IC50Werte beziehen sich auf die Substanzkonzentration, die unter den oben aufgeführten Testbedingungen eine 50%ige Hemmung der Protease-Aktivität bewirkt.

A further assay deals with HIV. The experiment in a line: HIV infection in cell culture (PBL), inhibition of virus-induced syncytia formation. The assay is classed as cell-based. The conditions noted are these: Human immunodeficiency virus 1, Lymphocyte, 72 h; HIV-infected normal human blood lymphocytes (PBL's); 50% suppression of virus-induced syncytia, read microscopically day 3 to 6 after infection. As to the method:
Außerdem zeigten die erfindungsgemäßen Verbindungen Wirkung in Lentivirus infizierten Zellkulturen. Dies konnte am Beispiel des HIV-Virus gezeigt werden.
HIV-Infektion in Zellkultur
Der HIV-Test wurde mit geringen Modifikationen nach der Methode von Pauwels et al. [vgl. Journal of Virological Methods 20, (1988), 309-321] durchgeführt.
Normale menschliche Blutlymphozyten (PBL's) wurden über Ficoll-Hypaque angereichert und im RPMI 1640, 20% fötales Kälberserum mit Phythaemagglutinin (90 µg/ml) und Interleukin-2 (40 U/ml) stimuliert. Zur Infektion mit dem infektiösen HIV wurden PBL's pelletiert und das Zellpellet wurde anschließend in 1 ml HIV-Virusadsorptionslösung suspendiert und 1 Stunde bei 37°C inkubiert.
Die Virusadsorptionslösung wurde zentrifugiert und das infizierte Zellpellet in Wachstumsmedium aufgenommen, so daß 1 x 10^5 Zellen pro ml eingestellt waren. Die derart infizierten Zellen wurden zu 1 x 10^4 Zellen/Napf in die Näpfe von 96er Mikrotiterplatten pipettiert.
Die erste vertikale Reihe der Mikrotiterplatte enthielt nur Wachstumsmedium und Zellen, die nicht infiziert, aber ansonsten genauso wie oben beschrieben, behandelt worden waren (Zellkontrolle). Die zweite vertikale Reihe der Mikrotiterplatte erhielt nur HIV-infizierte Zellen (Viruskontrolle) in Wachstumsmedium. Die übrigen Näpfe enthielten die erfindungsgemäßen Verbindungen in unterschiedlichen Konzentrationen, ausgehend von den Näpfen der 3. vertikalen Reihe der Mikrotiterplatte, von der die Prüfsubstanzen in 2er Schritten 2^10fach verdünnt wurden.
Die Testansätze wurden so lange bei 37°C inkubiert, bis in der unbehandelten Viruskontrolle die für das HIV typische Syncytienbildung auftrat (zwischen Tag 3 und 6 nach Infektion), die dann mikroskopisch ausgewertet wurde. In der unbehandelten Viruskontrolle resultierten unter diesen Testbedingungen etwa 20 Syncytien, währen die unbehandelte Zellkontrolle keine Syncytien aufwies. […]

Each structure is given as a SMILES string.

The IC50 is the concentration that inhibits the measured activity by half. Regarding `CC(=O)O[C@H](CN1[C@H](C(F)(F)F)C[C@@H]2CCC[C@@H]21)[C@H](Cc1ccccc1)NC(=O)[C@H](CC(N)=O)NC(=O)c1ccc2ccccc2n1` [Beispiel 2], on HIV-1-Protease, the “HIV-1-Protease-Inhibition IC95” value is recorded as 3,3 x 10^-5 Mol/l and the IC50 is 1.1 µM. For the same compound, half-maximal inhibition in the assay on HIV (IC50) was put at 0.612 µM.

`CCOC(=O)CCC(=O)O[C@H](CN1[C@H](C(F)(F)F)C[C@@H]2CCC[C@@H]21)[C@H](Cc1ccccc1)NC(=O)[C@H](CC(N)=O)NC(=O)c1ccc2ccccc2n1` [Beispiel 1, (2R,3S)-3-(Chinolin-2-yl-L-asparaginyl)-amino-1-[(S,S,S)-3-trifluormethyl-2-azabicylco[3.3.0]octan-2-yl}-2-(3-ethoxycarbonyl)propionyl-4-phenylbutan]: the results for the IC50 on HIV-1-Protease and in the assay on HIV were 320 µM and 0.108 µM, respectively.

Take `CC(=O)O[C@H](CN1[C@H](C(F)(F)F)C[C@@H]2CCC[C@@H]21)[C@H](Cc1ccccc1)NC(=O)[C@H](CC(N)=O)NC(=O)c1cnc2cc(C)c(C)cc2n1` [Beispiel 3]: on HIV-1-Protease, the “HIV-1-Protease-Inhibition IC95” value is reported as 2,5 x 10^-8 Mol/l and the IC50 came out at 0.0015 µM. This compound also had an IC50 in the assay on HIV of 0.12 µM.
